Assay [1] deals with T1, bovine thrombin (Bos taurus, UniProt P00735). Kind of assay: Antithrombin activity: inhibition of fibrin formation from fibrinogen (coagulation time). The class given is biochemical. Particulars: Table III, known compounds of Table II; coagulation time extended twice; *1: 0% Inhibition at the given concentration; read-out: I50 Thrombin Fibrinogen. Here is the method:
(§1) (2) Evaluation of Antithrombin Activity
(i) Determination of inhibition activity against fibrin formation
An inhibitor sample is dissolved in a 0.18 M borate-physiological salt buffer solution (pH = 7.4) to make the total volume to 500 µl. To this solution, 400 µl of a 0.2% bovine fibrinogen solution and 100 µl of a 4 unit/ ml bovine thrombin solution are added at a temperature of 37°C in a constant temperature bath. Thus, a coagulation time is determined. The inhibitor concentraion I50, at which the coagulation time obtained in the absence of the inhibitor is extended twice, is determined.

For assay [2], the target named is T2, Plasmin (Homo sapiens, UniProt P00747). Kind of assay: biochemical. How it is done:
(§2) (1) Evaluation of Antiplasmin Activity
(i) Determination of prevention activity for fibrin decomposition
0.18 M borate-physiological salt buffer solution (pH = 7.4) to make the total volme to 600 pl. To this buffer solution, 200 µl of a 0.2% bovin fibrinogen, 100 µl of a 0.3 cassein unit/ml human […] solution, and 100 µl of a 50 unit/ml bovine thrombin solution, all dissolved in the above-mentioned buffer, are added at a temperature of 37°C in a constant temperature bath. Then, the dissolution time of the fibrin mass formed above is determined.

In a further assay the target is human urokinase (Homo sapiens, UniProt P00749). The experiment in a line: Antiurokinase activity: prevention of S-2444 decomposition. The assay is classed as biochemical. Particulars: Table III, known compounds of Table II; substrate S-2444; *1: 0% Inhibition at the given concentration; read-out: I50 Urokinase S-2444. How it is done: (5) Evaluation of Antiurokinase Activity
Determination of prevention activity for S-2444 decomposition
(§3) An inhibitor sample is dissolved in a 0.05 M Tris-hydrochloric acid buffer solution (pH = 8.8) to make the total volume to 400 pl. To this solution, 50 pl of a 1 mM S―2444 solution is added and the mixture is incubated at a temperature of 37°C for 5 minutes in a constant temperature bath. Then, 50 µl of a 500 unit/ ml human urokinase is added and the mixture is incubated at a temperature of 37°C for 5 minutes. Thereafter, 50 pl of 50% acetic acid is added to terminate the reaction. The absorbance of the p-nitroaniline formed in the reaction mixture is measured at 405 nm. Thus, the concentration 150 of the inhibitor sample, at which the absorbance is one half (i.e., 1/2) of that obtained in the absence of the inhibitor, is determined.

In a further assay the target is T3, bovine trypsin (Bos taurus, UniProt P00760).
T3 sequence (P00760 24-246): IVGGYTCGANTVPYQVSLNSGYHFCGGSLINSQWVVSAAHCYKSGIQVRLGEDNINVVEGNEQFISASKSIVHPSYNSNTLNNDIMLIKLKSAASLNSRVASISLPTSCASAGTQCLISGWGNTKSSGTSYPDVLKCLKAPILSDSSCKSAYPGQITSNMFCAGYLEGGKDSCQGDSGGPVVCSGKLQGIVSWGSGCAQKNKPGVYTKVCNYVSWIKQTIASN
The experiment in a line: Antitrypsin activity: inhibition of S-2238 decomposition. Particulars: Table III, known compounds of Table II; substrate S-2238; *1: 0% Inhibition at the given concentration; read-out: I50 Trypsin S-2238. The class given is biochemical. Here is the method: (3) Evaluation of Antitrypsin Activity
Determination of inhibition activity against S-2238 decomposition
An inhibitor sample is dissolved in a 0.05 M Tris-imidazole buffer solution (pH = 8.1) and 125 µl of a 1 mM S―2238 solution is added to make the total volume to 1.20 ml. The mixture is incubated at a temperature of 37°C for 5 minutes in a constant temperature bath. To this mixture, 0.05 ml of bovine trypsin is added and the absorbance, at 405 nm, of the p-nitroaniline formed per minute is determined at a temperature of 37°C by using the so-called initial velocity method. Thus, the concentration 15° of the inhibitor sample, at which the absorbance is one half (i.e., 1/2) of that obtained in the absence of the inhibitor, is determined.

In assay [3] the target is T1, bovine thrombin. The experiment in a line: Antithrombin activity: prevention of S-2238 decomposition. The class given is biochemical. Particulars: Table III, known compounds of Table II; substrate S-2238; *1: 0% Inhibition at the given concentration; read-out: I50 Thrombin S-2238. How it is done:
as §1
(ii) Determination of prevention activity for S-2238 decomposition
An inhibitor sample is dissolved in a 0.05 M Tris-hydrochloric acid buffer solution (pH = 8.3) to make a total volume to 400 µl. To this solution, 50 µl of a […] S-2238 solution is added and the mixture is incubated at a temperature of 37°C for 5 minutes in a constant temperature bath. Then, 50 µl of a 0.2 unit/ml bovine thrombin solution is added thereto and the absorbance, at 405 nm, of the p-nitroaniline formed per minute is determined at a temperature of 37°C by using the so-called initial velocity method. Thus, the concentration 150 of the inhibitor sample at which the absorbance is one half (i.e., 1/2) of that obtained in the absence of the inhibitor, is determined.

The target in the next assay is human plasma kallikrein (Homo sapiens, UniProt P03952). The experiment in a line: Anti-plasma kallikrein activity: prevention of S-2302 decomposition. The class given is biochemical. Particulars: Table III, known compounds of Table II; substrate S-2302; *1: 0% Inhibition at the given concentration; read-out: I50 Plasma Kallikrein S-2302. How it is done: (4) Evaluation of Anti-Plasma Kallikrein Activity
human plasma kallikrein, sequence (P03952 391-638 limits assumed): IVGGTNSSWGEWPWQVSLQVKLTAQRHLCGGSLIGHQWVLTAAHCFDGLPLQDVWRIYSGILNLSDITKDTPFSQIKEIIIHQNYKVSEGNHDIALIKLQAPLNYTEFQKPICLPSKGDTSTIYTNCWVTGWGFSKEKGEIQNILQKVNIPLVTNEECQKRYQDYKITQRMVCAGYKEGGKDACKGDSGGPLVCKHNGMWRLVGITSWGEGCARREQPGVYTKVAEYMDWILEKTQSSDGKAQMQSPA
human plasma kallikrein, sequence (P03952 20-390 partner limits assumed): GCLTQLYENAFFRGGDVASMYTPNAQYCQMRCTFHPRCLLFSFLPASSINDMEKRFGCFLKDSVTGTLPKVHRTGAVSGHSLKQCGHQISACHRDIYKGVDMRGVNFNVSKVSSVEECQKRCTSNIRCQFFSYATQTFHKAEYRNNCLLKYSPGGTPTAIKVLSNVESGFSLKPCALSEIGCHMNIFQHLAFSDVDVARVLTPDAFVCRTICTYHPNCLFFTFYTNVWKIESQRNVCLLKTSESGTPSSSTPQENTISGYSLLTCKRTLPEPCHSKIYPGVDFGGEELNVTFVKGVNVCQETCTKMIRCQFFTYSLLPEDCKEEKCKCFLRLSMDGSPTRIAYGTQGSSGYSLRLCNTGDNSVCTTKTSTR
Determination of prevention activity for S―2302 decomposition
as §3, with “= 7.8)” for “= 8.8)”, “a 2” for “a 1”, “mM S-2302” for “mM S―2444”, “a 0.12” for “a 500”, “human plasma kallikrein” for “human urokinase”, “the inhibitor sample,” for “the inhibitor,”

Assay [4] concerns the target T2, Plasmin. The experiment in a line: biochemical. Particulars: substrate S-2251. How it is done: as §2
(ii) Determination of prevention activity for S-2251 decomposition
An inhibitor sample is dissolved in a 0.05 M Tris-hydrochloric acid buffer solution (pH = 7.4) to make the total volume to 400 µl. To this solution, 50 pl of a 3 mM S-2251 solution is added and the mixture is incubated at a temperature of 37°C for 5 minutes in a constant temperature bath. Then, 50 pl of a 0.2 casein unit/ml human plasmin is added and the mixture is incubated at a temperature of 37°C for 4 minutes. Thereafter, the reaction is stopped by adding 50 µl of 50% acetic acid.
The absorbance of p-nitroaniline formed in the reaction mixture is determined at 405 nm. Thus, the concentration I50 of the inhibitor sample, at which the absorbance is one half (i.e., 1/2) of that obtained in the absence of the inhibitor, is determined.

Where [5] appears, read: Table III, known compounds of Table II, fibrin dissolution time extended twice, *1: 0% Inhibition, *2: 19% Inhibition at the concentration, read-out: I50 Plasmin Fibrin.
Setting [6] is: Table IV, present compounds, plasmin, fibrin decomposition, read-out: I50 Fibrin.
Setting [7] is: Table III, known compounds of Table II, *1: 0% Inhibition at the given concentration, read-out: I50 Plasmin S-2251.
The mark [8] stands for this setting: Table IV, present compounds, plasmin, read-out: I50 S-2251.

Read-outs that look alike come from different tables or passages of the source. Square brackets hold non-standard residues; d marks the D form. Peptide text beside a SMILES is read from it. * marks the point of attachment. dPhg = N[C@@H](C(=O)O)c1ccccc1; Tos = Cc1ccc(S(=O)(=O)*)cc1

T2 sequence (P00747 581-810 limits assumed): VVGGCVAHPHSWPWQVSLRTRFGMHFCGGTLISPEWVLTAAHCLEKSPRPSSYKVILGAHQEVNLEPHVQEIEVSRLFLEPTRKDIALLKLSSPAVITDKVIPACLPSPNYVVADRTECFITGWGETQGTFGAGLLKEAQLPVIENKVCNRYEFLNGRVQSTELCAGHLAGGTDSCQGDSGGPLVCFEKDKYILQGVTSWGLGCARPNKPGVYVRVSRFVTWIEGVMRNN
T2 sequence (P00747 97-580 partner limits assumed): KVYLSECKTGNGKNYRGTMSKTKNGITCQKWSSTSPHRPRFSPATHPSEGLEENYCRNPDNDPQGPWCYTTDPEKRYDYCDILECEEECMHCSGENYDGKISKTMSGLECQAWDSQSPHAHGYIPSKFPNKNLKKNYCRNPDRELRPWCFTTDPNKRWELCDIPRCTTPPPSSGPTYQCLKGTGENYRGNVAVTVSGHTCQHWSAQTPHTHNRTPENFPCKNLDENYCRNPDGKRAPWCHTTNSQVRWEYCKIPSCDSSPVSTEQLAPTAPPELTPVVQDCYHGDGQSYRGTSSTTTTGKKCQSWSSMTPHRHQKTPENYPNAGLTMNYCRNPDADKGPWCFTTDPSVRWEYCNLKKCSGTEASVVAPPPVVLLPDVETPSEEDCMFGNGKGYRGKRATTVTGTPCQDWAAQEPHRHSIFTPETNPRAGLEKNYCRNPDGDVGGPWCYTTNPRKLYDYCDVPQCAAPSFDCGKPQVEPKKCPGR

Take `NCCCCCC(=O)N[C@@H](CCCCN)C(=O)O` [Compound No. 7]: the IC50 at bovine thrombin [1] was above 1000 µM; on Plasmin [2] (setting [5]) it was above 1000 µM; on Plasmin [2] (setting [6]) it was 300 µM; on human urokinase it was above 1000 µM; at bovine trypsin it was above 200 µM; on bovine thrombin [3] it was above 1000 µM. Moreover, the IC50 on human plasma kallikrein is above 1000 µM; at Plasmin [4] (setting [7]), above 1000 µM; at Plasmin [4] (setting [8]), 350 µM.
For `NCCCC[C@H](NC(=O)c1ccccc1)C(N)=O` [Compound No. 8], the IC50 at bovine thrombin [1] is above 1000 µM; at Plasmin [2] (setting [5]) it was above 1000 µM; at Plasmin [2] (setting [6]) it was 140 µM; on human urokinase, above 1000 µM; at bovine trypsin, above 300 µM; on bovine thrombin [3] it was above 1000 µM. Besides, the IC50 is above 1000 µM at human plasma kallikrein, above 1000 µM on Plasmin [4] (setting [7]) and 250 µM on Plasmin [4] (setting [8]).
As for `NCCCC[C@H](NS(=O)(=O)c1cccc2ccccc12)C(=O)Nc1ccc([N+](=O)[O-])cc1` [Compound No. 10], the IC50 on Plasmin [2] (setting [6]) turned out to be 310 µM; on Plasmin [4] (setting [8]) it was 1700 µM.
Turning to `NCCCC[C@H](NS(=O)(=O)c1ccccc1)C(N)=O` [compound 4], the IC50 was above 1000 µM on bovine thrombin [1]; above 1000 µM on Plasmin [2] (setting [5]); above 1000 µM on human urokinase; above 150 µM at bovine trypsin; above 1000 µM on bovine thrombin [3]; above 1000 µM on human plasma kallikrein. Also, the IC50 on Plasmin [4] (setting [7]) was above 1000 µM.
On to `Cc1ccc(S(=O)(=O)N[C@@H](CCCCN)C(=O)O)cc1` [compound 5], for which the IC50 was determined as 1000 µM at Plasmin [2] (setting [5]) and 1400 µM on Plasmin [4] (setting [7]).
Regarding `Cc1ccc(S(=O)(=O)N[C@@H](CCCCN)C(=O)Nc2cccc(Cl)c2)cc1` [compound 18], the IC50 on Plasmin [2] (setting [6]) worked out at 350 µM; at Plasmin [4] (setting [8]), 600 µM.
The corresponding values for `Cc1ccc(S(=O)(=O)N[C@H](CCCCN)C(=O)Nc2ccc(C(=O)c3ccccc3)cc2)cc1` [compound 20] are 1000 µM and 2000 µM.
Turning to `Cc1ccc(S(=O)(=O)N[C@@H](CCCCN)C(=O)N2CCC(Cc3ccccc3)CC2)cc1` [compound 21], the IC50 was determined as 150 µM on Plasmin [2] (setting [6]) and 300 µM at Plasmin [4] (setting [8]).
With `CCOC(=O)[C@H](NC(=O)[C@H](CCCCN)NS(=O)(=O)c1ccc(C)cc1)c1ccccc1` [compound 22] (Tos-Lys-[dPhg]-OEt), the IC50 at Plasmin [2] (setting [6]) came to 600 µM; at Plasmin [4] (setting [8]), 650 µM.
Turning to `Cc1ccc(S(=O)(=O)N[C@@H](CCCCN)C(=O)Nc2cccc(C#N)c2)cc1` [compound 29], the IC50 at Plasmin [2] (setting [6]) worked out at 340 µM; at Plasmin [4] (setting [8]) it was 480 µM.
The corresponding values for `Cc1ccc(S(=O)(=O)N[C@@H](CCCCN)C(=O)Nc2ccc(Oc3ccccc3)cc2)cc1` [compound 31] are 150 µM and 780 µM.
In the same order, the values of `Cc1ccc(S(=O)(=O)N[C@@H](CCCCN)C(=O)Nc2ccc(C(F)(F)F)cc2)cc1` [compound 32] are 430 µM and 600 µM.
The corresponding values for `CCOC(=O)c1ccc(NC(=O)[C@H](CCCCN)NS(=O)(=O)c2ccc(C)cc2)cc1` [compound 33] are 540 µM and 650 µM.
As to `Cc1ccc(S(=O)(=O)N[C@@H](CCCCN)C(=O)Nc2ccc(Cl)c(Cl)c2)cc1` [compound 35], the IC50 on Plasmin [2] (setting [6]) is 190 µM; on Plasmin [4] (setting [8]) it was 370 µM.
Take `CC1CCCN(C(=O)[C@H](CCCCN)NS(=O)(=O)c2cccc3c(N(C)C)cccc23)C1` (some centres unmarked) [compound 37]: the figures for the IC50 at Plasmin [2] (setting [6]) and at Plasmin [4] (setting [8]) were 730 µM and 2000 µM, respectively.
As for `CCOC(=O)c1c(C)cc(NC(=O)[C@H](CCCCN)NS(=O)(=O)c2ccc(C)cc2)cc1C` [compound 40], the values for the IC50 at Plasmin [2] (setting [6]) and at Plasmin [4] (setting [8]) were 440 µM and 590 µM, respectively.
For the compound `Cc1ccc(S(=O)(=O)N[C@@H](CCCCN)C(=O)Nc2cc(C)nc3ccccc23)cc1` [compound 42], the IC50 at Plasmin [4] (setting [8]) stood at 230 µM.
The same measure, in the same setting: next, `CN(C)c1cccc2c(S(=O)(=O)N[C@@H](CCCCN)C(=O)N3CCC(Cc4ccccc4)CC3)cccc12` [compound 48]: 130 µM.

Source of the values: patent publication EP0183271B1, “Lysin derivative and proteinase inhibitor” (Okamoto, Shosuke, priority 1984, dated 1986).
